≈ marks a conversion by molar mass, not a printed value. Where two headings read alike, the source gives them in different places.
Legend:
Type in all cases: cell-based
[1] = tested on: STREPTOCOCCUS PYOGENES 930 CONST; test: In vitro antibacterial activity, agar dilution MIC; details: S. pyogenes 930 CONST, BHI agar, 35-37° C., 20 to 24 hours, read-out: MIC
[2] = tested on: ACINETOBACTER CALCOACETICUS CMX 669; test: In vitro antibacterial activity, agar dilution MIC; details: A. calcoaceticus CMX 669, BHI agar, 35-37° C., 20 to 24 hours
[3] = tested on: PSEUDOMONAS AERUGINOSA BMH10; test: In vitro antibacterial activity, agar dilution MIC
[4] = tested on: PROVIDENCIA STUARTII CMX 640; test: microbe, parasite or virus in culture
STAPHYLOCOCCUS AUREUS 45 = test: In vitro antibacterial activity, agar dilution MIC; details: 24 h
[5] = tested on: KLEBSIELLA PNEUMONIAE ATCC 8045; test: In vitro antibacterial activity, agar dilution MIC; details: ATCC8045, 24 h
ESCHERICHIA COLI KNK 437 = test: microbe, parasite or virus in culture; details: E. coli KNK 437, BHI agar, 35-37° C., 20 to 24 hours
[6] = tested on: STREPTOCOCCUS PYOGENES 2548 INDUC; test: In vitro antibacterial activity, agar dilution MIC; details: 24 h
PSEUDOMONAS CEPACIA 296I = test: In vitro antibacterial activity, agar dilution MIC; details: Burkholderia cepacia; P. cepacia 296I; BHI agar, 35-37° C., 20 to 24 hours; read-out: MIC
[7] = tested on: PSEUDOMONAS AERUGINOSA A5007; test: In vitro antibacterial activity, agar dilution MIC; details: P. aeruginosa A5007, BHI agar, 35-37° C., 20 to 24 hours
[8] = tested on: STAPHYLOCOCCUS AUREUS 1775; test: In vitro antibacterial activity, agar dilution MIC; details: S. aureus 1775, BHI agar, 35-37° C., 20 to 24 hours, read-out: MIC
ESCHERICHIA COLI JUHL = test: microbe, parasite or virus in culture
[9] = tested on: STAPHYLOCOCCUS EPIDERMIDIS 3519; test: microbe, parasite or virus in culture
ESCHERICHIA COLI DC-2 = test: In vitro antibacterial activity, agar dilution MIC
ESCHERICHIA COLI SS = test: In vitro antibacterial activity, agar dilution MIC; details: 24 h
[10] = tested on: STAPHYLOCOCCUS AUREUS A5177; test: In vitro antibacterial activity, agar dilution MIC
[11] = tested on: ENTEROBACTER AEROGENES ATCC 13048; test: In vitro antibacterial activity, agar dilution MIC; details: Klebsiella aerogenes
[12] = tested on: STAPHYLOCOCCUS AUREUS ATCC 6538P; test: In vitro antibacterial activity, agar dilution MIC; details: ATCC6538P
ESCHERICHIA COLI H560 = test: In vitro antibacterial activity, agar dilution MIC
[13] = tested on: STAPHYLOCOCCUS AUREUS CMX 553; test: In vitro antibacterial activity, agar dilution MIC
STR[…] EES61 = test: In vitro antibacterial activity, agar dilution MIC; details: Streptococcus pyogenes, 24 h
Procedure: (§1) Representative compounds of the present invention were assayed in vitro for antibacterial activity as follows: Twelve petri dishes containing successive aqueous dilutions of the test compound mixed with 10 ml of sterilized Brain Heart Infusion (BHI) agar (Difco 0418-01-5) were prepared. Each plate was inoculated with 1:100 (or 1:10 for slow-growing strains, such as Micrococcus and Streptococcus) dilutions of up to 32 different microorganisms, using a Steers replicator block. The inoculated plates were incubated at 35°-37° C. for 20 to 24 hours. In addition, a control plate, using BHI agar containing no test compound, was prepared and incubated at the beginning and end of each test.
(§2) An additional plate containing a compound having known susceptibility patterns for the organisms being tested and belonging to the same antibiotic class as the test compound was also prepared and incubated as a further control, as well as to provide test-to-test comparability. Erythromycin A was used for this purpose.
(§3) After incubation, each disk was read. The minimum inhibitory concentration (MIC) was defined as the lowest concentration of drug yielding no growth, a slight haze, or sparsely isolated colonies on the inoculum spot as compared to the growth control.

STR[…] 508 = test: In vitro antibacterial activity, agar dilution MIC; details: Streptococcus agalactiae, 24 h
Procedure: as §1, §2, §3

M[…] ATCC 9341 = test: In vitro antibacterial activity, agar dilution MIC; details: Micrococcus luteus, ATCC9341, 24 h
Procedure: as §1, §2
(§4) After incubation, each disk was read. The minimum inhibitory concentration (MIC) was defined as the lowest concentration of drug yielding no growth, a slight haze, or sparsely isolated colonies on the inoculum spot as compared to the growth control. The results of this assay, shown below in Tables 1 and 2, support the conclusion that the compounds of the invention are effective antibacterial agents.

EN[…] ATCC 8043 = test: In vitro antibacterial activity, agar dilution MIC; details: Enterococcus faecium, ATCC8043, 24 h
Procedure: as §1, §2, §4

[14] = tested on: PSEUDOMONAS AERUGINOSA K799/61; test: In vitro antibacterial activity, agar dilution MIC
Procedure: as §1, §2, §4

M[…] ATCC 4698 = test: In vitro antibacterial activity, agar dilution MIC; details: Micrococcus luteus, ATCC4698, 24 h
Procedure: as §1, §2, §4

[15] = tested on: STAPHYLOCOCCUS AUREUS NCTC 10649; test: In vitro antibacterial activity, agar dilution MIC; details: NCTC10649, 24 h
[16] = tested on: PSEUDOMONAS AERUGINOSA K799/WT; test: In vitro antibacterial activity, agar dilution MIC; details: P. aeruginosa K799/WT, BHI agar, 35-37° C., 20 to 24 hours
[17] = tested on: STAPHYLOCOCCUS AUREUS 642A; test: In vitro antibacterial activity, agar dilution MIC; details: 24 h
[18] = tested on: STREPTOCOCCUS BOVIS A5169; test: In vitro antibacterial activity, agar dilution MIC; details: 24 h
[19] = P. aeruginosa BMH10, BHI agar, 35-37° C., 20 to 24 hours, read-out: MIC
[20] = P. stuartii CMX 640, BHI agar, 35-37° C., 20 to 24 hours
[21] = E. coli JUHL, BHI agar, 35-37° C., 20 to 24 hours, read-out: MIC
[22] = S. epidermidis 3519, BHI agar, 35-37° C., 20 to 24 hours, read-out: MIC
[23] = E. coli H560, BHI agar, 35-37° C., 20 to 24 hours, read-out: MIC
[24] = S. aureus CMX 553, BHI agar, 35-37° C., 20 to 24 hours, read-out: MIC
[25] = S. aureus A5177, BHI agar, 35-37° C., 20 to 24 hours, read-out: MIC
[26] = ATCC13048, E. aerogenes ATCC 13048, BHI agar, 35-37° C., 20 to 24 hours, read-out: MIC

Compound	MIC [1]	MIC [2]	MIC [3, 19]	MIC [4, 20]	MIC (STAPHYLOCOCCUS AUREUS 45)	MIC [5]	MIC (ESCHERICHIA COLI KNK 437)	MIC [6]	MIC (PSEUDOMONAS CEPACIA 296I)	MIC [7]	MIC [8]	MIC (ESCHERICHIA COLI JUHL; [21])	MIC (ESCHERICHIA COLI SS)	MIC (STR[…] EES61)	MIC (STR[…] 508)	MIC (M[…] ATCC 9341)	MIC (EN[…] ATCC 8043)	MIC (M[…] ATCC 4698)	MIC [15]	MIC [16]	also measured
CC[C@H]1OC(=O)[C@H](C)[C@@H](O[C@H]2C[C@@](C)(OC)[C@@H](O)[C@H](C)O2)[C@H](C)[C@@H](O[C@@H]2O[C@H](C)C[C@H](N(C)C)[C@H]2O)[C@](C)(O)C[C@@H](C)[C@@H](N(C)C)[C@H](C)[C@@H](O)[C@@]1(O)CN(C)C [Compound 18, (9R)-9,21-di-(N,N-dimethylamino)-9-deoxoerythromycin A]	> 100 µg/mL	12.5 µg/mL (≈ 15.5 µM)	100 µg/mL (≈ 124 µM)	> 100 µg/mL	1.56 µg/mL (≈ 1.94 µM)	6.2 µg/mL (≈ 7.69 µM)	12.5 µg/mL (≈ 15.5 µM)	25 µg/mL (≈ 31 µM)	> 100 µg/mL	> 100 µg/mL	> 100 µg/mL	12.5 µg/mL (≈ 15.5 µM)	0.2 µg/mL (≈ 0.248 µM)	0.1 µg/mL (≈ 0.124 µM)	0.2 µg/mL (≈ 0.248 µM)	0.2 µg/mL (≈ 0.248 µM)	0.39 µg/mL (≈ 0.484 µM)	0.78 µg/mL (≈ 0.968 µM)	1.56 µg/mL (≈ 1.94 µM)	> 100 µg/mL	MIC [9, 22]: 3.1 µg/mL (≈ 3.85 µM); MIC (ESCHERICHIA COLI DC-2; 24 h): 6.2 µg/mL (≈ 7.69 µM); MIC ([10]; 24 h): 25 µg/mL (≈ 31 µM); MIC ([11]; ATCC13048, 24 h): 25 µg/mL (≈ 31 µM); MIC ([12]; 24 h): 1.56 µg/mL (≈ 1.94 µM); MIC (ESCHERICHIA COLI H560; [23]): 3.1 µg/mL (≈ 3.85 µM); MIC [13, 24]: 3.1 µg/mL (≈ 3.85 µM); MIC ([14]; 24 h): 1.56 µg/mL (≈ 1.94 µM)
CC[C@H]1OC(=O)[C@H](C)[C@@H](O[C@H]2C[C@@](C)(OC)[C@@H](O)[C@H](C)O2)[C@H](C)[C@@H](O[C@@H]2O[C@H](C)C[C@H](N(C)C)[C@H]2O)[C@](C)(O)C[C@@H](C)[C@@H](N)[C@H](C)[C@@H](O)[C@@]1(O)CNCc1ccccc1 [Compound 14, (9R)-9-amino-21-benzylamino-9-deoxo-erythromycin A]	> 100 µg/mL	–	–	> 100 µg/mL	6.2 µg/mL (≈ 7.38 µM)	50 µg/mL (≈ 59.5 µM)	100 µg/mL (≈ 119 µM)	3.1 µg/mL (≈ 3.69 µM)	> 100 µg/mL	> 100 µg/mL	> 100 µg/mL	100 µg/mL (≈ 119 µM)	0.78 µg/mL (≈ 0.928 µM)	0.2 µg/mL (≈ 0.238 µM)	0.39 µg/mL (≈ 0.464 µM)	0.78 µg/mL (≈ 0.928 µM)	3.1 µg/mL (≈ 3.69 µM)	3.1 µg/mL (≈ 3.69 µM)	3.1 µg/mL (≈ 3.69 µM)	> 100 µg/mL	MIC [17]: 6.2 µg/mL (≈ 7.38 µM); MIC ([3]; 24 h): 50 µg/mL (≈ 59.5 µM); MIC ([9]; 24 h): 1.56 µg/mL (≈ 1.86 µM); MIC (ESCHERICHIA COLI DC-2; E. coli DC-2, BHI agar, 35-37° C., 20 to 24 hours, read-out: MIC): 100 µg/mL (≈ 119 µM); MIC [10, 25]: > 100 µg/mL; MIC [11, 26]: > 100 µg/mL; MIC ([12]; 24 h): 3.1 µg/mL (≈ 3.69 µM); MIC (ESCHERICHIA COLI H560; 24 h): 25 µg/mL (≈ 29.8 µM); MIC ([13]; 24 h): 6.2 µg/mL (≈ 7.38 µM); MIC ([14]; P. aeruginosa K799/61, BHI agar, 35-37° C., 20 to 24 hours, read-out: MIC): 25 µg/mL (≈ 29.8 µM); MIC [18]: 0.2 µg/mL (≈ 0.238 µM)
CC[C@H]1OC(=O)[C@H](C)[C@@H](O[C@H]2C[C@@](C)(OC)[C@@H](O)[C@H](C)O2)[C@H](C)[C@@H](O[C@@H]2O[C@H](C)C[C@H](N(C)C)[C@H]2O)[C@](C)(O)C[C@@H](C)[C@@H](N(C)C)[C@H](C)[C@@H](O)[C@@]1(O)CNC [Compound 17, (9R)-9-deoxo-9-(N,N-dimethylamino)-21-(N-methylamino)-erythromycin A]	> 100 µg/mL	100 µg/mL (≈ 126 µM)	100 µg/mL (≈ 126 µM)	–	6.2 µg/mL (≈ 7.83 µM)	50 µg/mL (≈ 63.1 µM)	25 µg/mL (≈ 31.6 µM)	50 µg/mL (≈ 63.1 µM)	> 100 µg/mL	> 100 µg/mL	> 100 µg/mL	–	0.78 µg/mL (≈ 0.985 µM)	0.78 µg/mL (≈ 0.985 µM)	1.56 µg/mL (≈ 1.97 µM)	1.56 µg/mL (≈ 1.97 µM)	3.1 µg/mL (≈ 3.91 µM)	1.56 µg/mL (≈ 1.97 µM)	6.2 µg/mL (≈ 7.83 µM)	> 100 µg/mL	MIC ([4]; 24 h): > 100 µg/mL; MIC (ESCHERICHIA COLI JUHL; 24 h): 50 µg/mL (≈ 63.1 µM); MIC [9, 22]: 12.5 µg/mL (≈ 15.8 µM); MIC (ESCHERICHIA COLI DC-2; 24 h): 50 µg/mL (≈ 63.1 µM); MIC [10, 25]: > 100 µg/mL; MIC [11, 26]: 100 µg/mL (≈ 126 µM); MIC ([12]; S. aureus ATCC 6538P, BHI agar, 35-37° C., 20 to 24 hours, read-out: MIC): 12.5 µg/mL (≈ 15.8 µM); MIC (ESCHERICHIA COLI H560; [23]): 12.5 µg/mL (≈ 15.8 µM); MIC [13, 24]: 12.5 µg/mL (≈ 15.8 µM); MIC ([14]; 24 h): 3.1 µg/mL (≈ 3.91 µM); MIC [18]: 0.78 µg/mL (≈ 0.985 µM)
